Legend:
Assay type in all cases: in vivo, healthy men
[1] = tested on: perception of sweet taste (panel members); assay: Qualitative evaluation of the perception of sweet taste by a 5-volunteer panel; design: key to Perception of sweet taste: +: perception of sweet taste; ++: very strong perception of sweet taste; −: absence of sweet taste; details: 4000 ppm solution in 20% ethanol, 5 panel members; for Perception of sweet taste: 10 ml mouth rinse 20 s
Experimental: Compounds according to the present invention destined for testing of their taste perception modifying properties were re-crystallized from ethanol or an ethanol-water mixture.
Qualitative evaluation of the perception of sweet taste; the examined substances were dissolved in a 20% ethanol and water mixture (vol./vol.).
Three initial solutions were formulated, containing: • the compound of example 1 (3-benzylaminomethylenedihydrofuran-2-one, 4000 ppm solution-400 mg in 100 ml 20% ethanol), • compound of example 2 ((R)-3-(1-phenylethylamino)methylenedihydrofuran-2-one, 4000 ppm solution-400 mg in 100 ml 20% ethanol), • compound of example 6 (2-benzylaminomethylenecyclopentanone, 4000 ppm solution−400 mg in 100 ml 20% ethanol).
Solutions of lower concentrations were obtained through dilution, to appropriate proportions, of the initial solutions with a 20% mixture of ethanol and distilled water (vol./vol.).
(§1) Evaluation of the degree of sweetness of the compounds according to the present invention was performed using a 5-volunteer panel—healthy men—henceforth referred to as panel members. All panel members were informed of the need to maintain safety procedures during the evaluation of the compounds according to the present invention, In particular, of the need to avoid swallowing the tested solutions. Each of the panel members received a 10 ml sample of a solution in a small vial and rinsed out their mouth with the entire contents of the vial for 20 seconds and then spit out the tested solution. Next, they carefully rinsed out their mouth with a large volume of distilled water (at least 150 ml) for at least 30 seconds. When the panel member felt that they no longer perceived any taste, they could proceed with the evaluation of the next solution.
During the first stage, the panel members qualitatively examined the taste of the three initial solutions containing 4000 ppm of a compound according to the present invention. The panel members all agreed that the solutions have an intensive sweet taste.
An additional qualitative evaluation was made of compounds according to the present invention from examples 4, 7 and 9, and compounds from comparative examples 1-19, in the form of 4000 ppm solutions. […] Solutions of compounds from the comparative examples lack a sweet taste.

[2] = tested on: perception of sweetness (panel members); assay: Comparative analysis of the intensity of the sweet taste against a 10% saccharose reference solution; details: for Results of sweetness comparisons against the reference solution [+] (sample sweeter) / Results of sweetness comparisons against the reference solution [=] (unable to tell) / Results of sweetness comparisons against the reference solution [−] (sample less sweet): count out of 10 comparative tests, reference 10% saccharose in 20% ethanol
Description: During the next stage, we performed a comparative analysis of the intensity of the sweet taste. In the study we used the compound of example 1 (3-benzyl-aminomethylenedihydrofuran-2-one). The subject of the study consisted of samples of the initial 4000 ppm solution, and samples of diluted solutions containing 2000, 1000, 800 and 500 ppm of the compound of example 1.
The reference solution comprised 10% saccharose (wt./wt.) in 20% ethanol, containing 100000 ppm (wt./wt.) saccharose.
The study operator gave the panel members samples of the compound with the formula 1 marked with randomly generated 3-digit numbers, and also samples of the reference solution of saccharose in order to compare the perception of sweetness to the saccharose reference solution. Each of the 5 panel members received for comparison random samples of the solutions of the compound of example 1, twice, containing 4000 ppm, 2000 ppm, 1000 ppm, 800 ppm and 500 ppm of the compound. Each concentration was thus examined in 10 comparative tests.
The task for each panel member was to determine whether a given sample is less or more sweet than the reference solution. Each of the panel members completed a form according to the following rules: if a sample was sweeter, then he placed a plus sign [+] beside the symbol of the sample, if it was less sweet, a minus sign [−], and if in doubt, an equal sign [=]. Similar to the qualitative analysis, each of the panel members received a sample of 10 ml of a solution in a small vial, gently rinsed his mouth out with it for 20 seconds and then spat out the tested solution. Next, he carefully rinsed out his mouth with a large volume of distilled water (at least 150 ml) for at least 30 seconds. When the panel member felt that he no longer perceived any taste, he could proceed with the evaluation of the next solution.

[3] = tested on: sweet taste of sweet-tasting products (panel members); assay: Inhibition of sweet taste of sweet products, commercial sweeteners and sweet compounds by the compound of example 3; design: key to Perceived sweet taste: ++: Strong perception of sweet taste; key to Perception of sweet taste following the addition of the compound of example 3: <<+: Weak or absent perception of sweet taste; details: for Perceived sweet taste: without compound of example 3
Experimental: Evaluation of the degree of sweetness of the compounds according to the present invention was performed using a 5-volunteer panel-healthy men-henceforth referred to as panel members. All panel members were informed of the need to maintain safety procedures during the evaluation of the compounds according to the present invention, In particular, of the need to avoid swallowing the tested solutions. Each of the panel members received a 10 ml sample of a solution in a small vial and rinsed out their mouth with the entire contents of the vial for 20 seconds and then spit out the tested solution. Next, they carefully rinsed out their mouth with a large volume of distilled water (at least 150 ml) for at least 30 seconds. When the panel member felt that they no longer perceived any taste, they could proceed with the evaluation of the next solution. Solutions of sweet products were prepared (saccharose, glucose, bee honey, glycine), by dissolving 100 mg of the product in 5 ml 20% aqueous ethanol. Two solutions are prepared of each product. One of these solutions is supplemented with a compound according to example 3 of the present invention (100 mg). Next, the taste of both solutions is compared for evaluating the qualitative perception of the taste of both solutions, proceeding according to the procedure established above, for the qualitative evaluation of the perception of sweet taste. The study results are compiled in Table 4. Solutions of commercially available sweeteners were prepared (“Sweet Top®” containing aspartame and […]®” containing sorbitol, sodium cyclamate and sodium saccharinate), by dissolving 5 mg of the sweetener in 20 ml of 20% aqueous ethanol. Each sweetener solution was made up twice. One of these solutions was supplemented with a compound according to example 3 of the present invention (5 mg). Next, the taste of both solutions was evaluated proceeding according to the procedure shown above, for the qualitative evaluation of the perception of sweet taste. The study results are compiled in Table 4. Solutions of compounds with a sweet taste according to the present invention were prepared (compounds of examples 1, 2 and 6), dissolving 5 mg of the compound according to the present invention in 20 ml 20% of aqueous ethanol. Two solutions were made of each compound of examples 1, 2 and 6. One of these solutions was supplemented with the compound of example 3 according to the present invention (5 mg). Next, the taste of both solutions was evaluated proceeding according to the above procedure for the qualitative evaluation of the perception of sweet taste. The study results are compiled in Table 4.

[4] = tested on: sweet taste of saccharose (panel members); assay: Inhibition of sweet taste of a saccharose solution, qualitative panel evaluation; design: key to Inhibition of sweet taste: ++: complete inhibition of sweet taste; −: lack of inhibition of sweet taste; details: 100 mg saccharose in 5 ml 20% aqueous ethanol plus 100 mg compound, vs saccharose solution without compound
Experimental: as §1
The inhibition of sweet taste of sweet substances or mixtures thereof by inhibitors of sweet taste according to the present invention was examine qualitatively according to the following procedure. Two samples of saccharose, each of 100 mg, are dissolved in 5 ml 20% of aqueous ethanol, and then one solution is supplemented with 100 mg of a compound of an example according to the present invention (compounds from examples 3, 5, and 8). Next, the taste of both solutions is evaluated using the procedure presented above, for the qualitative perception of a sweet taste. […] The study was also performed on compounds from comparative examples 1-19.

[5] = approximate interpretation of the dilution series, comparison with a 10% saccharose solution in 20% ethanol
[6] = 5 mg in 20 ml 20% aqueous ethanol plus 5 mg compound of example 3
[7] = 5 mg in 20 ml 20% aqueous ethanol
[8] = 100 mg product in 5 ml 20% aqueous ethanol plus 100 mg compound of example 3
[9] = 100 mg product in 5 ml 20% aqueous ethanol

O=C1OCCC1=CNCc1ccccc1 [Example 1, 3-Benzylaminomethylenedihydrofuran-2-one]
Perception of sweet taste [1]: ++
Results of sweetness comparisons against the reference solution [+] (sample sweeter) ([2]; 500 ppm in 20% ethanol): 2
Results of sweetness comparisons against the reference solution [=] (unable to tell) ([2]; 500 ppm in 20% ethanol): 2
Results of sweetness comparisons against the reference solution [−] (sample less sweet) ([2]; 500 ppm in 20% ethanol): 6
Results of sweetness comparisons against the reference solution [+] (sample sweeter) ([2]; 800 ppm in 20% ethanol): 2
Results of sweetness comparisons against the reference solution [=] (unable to tell) ([2]; 800 ppm in 20% ethanol): 6
Results of sweetness comparisons against the reference solution [−] (sample less sweet) ([2]; 800 ppm in 20% ethanol): 2
Results of sweetness comparisons against the reference solution [+] (sample sweeter) ([2]; 1000 ppm in 20% ethanol): 8
Results of sweetness comparisons against the reference solution [−] (sample less sweet) ([2]; 1000 ppm in 20% ethanol): 2
Results of sweetness comparisons against the reference solution [+] (sample sweeter) ([2]; 2000 ppm in 20% ethanol): 10
Results of sweetness comparisons against the reference solution [+] (sample sweeter) ([2]; 4000 ppm in 20% ethanol): 10
Times sweeter than saccharose [2, 5]: 200-250 times
Times sweeter than saccharose ([2]; concluded from the initial 4000 ppm solution vs 10% saccharose reference): at least 50 times
Sweetness of the initial solution compared with the reference solution (saccharose) ([2]; initial 4000 ppm solution vs 10% saccharose (100000 ppm) in 20% ethanol, all panel members): much sweeter than the reference solution
Perception of sweet taste following the addition of the compound of example 3 [3, 6]: <<+
Sweet taste of the solution with an addition of the compound of example 3 (in words) [3, 6]: only a trace perceived sweet taste
Perceived sweet taste [3, 7]: ++

C[C@@H](NC=C1CCOC1=O)c1ccccc1 [Example 2, (R)-3-(1-phenylethyl)aminomethylenedihydrofuran-2-one]
Perception of sweet taste [1]: ++
Times sweeter than saccharose [2, 5]: 200-250 times
Perception of sweet taste following the addition of the compound of example 3 [3, 6]: <<+
Sweet taste of the solution with an addition of the compound of example 3 (in words) [3, 6]: does not exhibit a sweet taste
Perceived sweet taste [3, 7]: ++

C[C@H](NC=C1CCOC1=O)c1ccccc1 [Example 3, (S)-3-(1-phenylethyl)aminomethylenedihydrofuran-2-one]
Inhibition of sweet taste [4]: ++
Taste of the saccharose solution with the compound [4]: practically not sweet at all

CC[C@@H](NC=C1CCOC1=O)c1ccccc1 [Example 4, (R)-3-(1-phenylpropylo)aminomethylenedihydrofuran-2-one]
Taste of the solution as described by the panel members [1]: intensively sweet taste
Perception of sweet taste [1]: ++

CC[C@H](NC=C1CCOC1=O)c1ccccc1 [Example 5, (S)-3-(1-phenylpropylo)aminomethylenedihydrofuran-2-one]
Inhibition of sweet taste [4]: ++
Taste of the saccharose solution with the compound [4]: practically not sweet at all

O=C1CCCC1=CNCc1ccccc1 [Example 6, 2-Benzylaminomethylenecyclopentanone]
Perception of sweet taste [1]: ++
Times sweeter than saccharose [2, 5]: at least 250 times
Perception of sweet taste following the addition of the compound of example 3 [3, 6]: <<+
Sweet taste of the solution with an addition of the compound of example 3 (in words) [3, 6]: only a trace perceived sweet taste
Perceived sweet taste [3, 7]: ++

C[C@@H](NC=C1CCCC1=O)c1ccccc1 [Example 7, (R)-2-(1-phenylethyl)aminomethylenecyclopentanone]
Taste of the solution as described by the panel members [1]: intensively sweet taste
Perception of sweet taste [1]: ++

C[C@H](NC=C1CCCC1=O)c1ccccc1 [Example 8, (S)-2-(1-phenylethyl)aminomethylenecyclopentanone]
Inhibition of sweet taste [4]: ++
Taste of the saccharose solution with the compound [4]: practically not sweet at all

O=C1OCCC1=CNCc1cccnc1 [Example 9, 3-(3-pirydylomethyl)aminomethylenedihydrofuran-2-one]
Bitter side taste [1]: somewhat bitter
Taste of the solution as described by the panel members [1]: significantly less sweet than the solution of 3-benzylaminomethylenedihydrofuran-2-one
Bitter side taste ([1]; listed as example 9): admixture of a bitter taste
Perception of sweet taste [1]: +

NCC(=O)O [glycine, reference compound]
Perception of sweet taste following the addition of the compound of example 3 [3, 8]: <<+
Sweet taste of the solution with an addition of the compound of example 3 (in words) [3, 8]: do not elicit the perception of a sweet taste, not even a weak one
Perceived sweet taste [3, 9]: ++

OC[C@H]1O[C@@](CO)(O[C@H]2O[C@H](CO)[C@@H](O)[C@H](O)[C@H]2O)[C@@H](O)[C@@H]1O [saccharose, reference compound]
Perception of sweet taste following the addition of the compound of example 3 [3, 8]: <<+
Sweet taste of the solution with an addition of the compound of example 3 (in words) [3, 8]: do not elicit the perception of a sweet taste, not even a weak one
Perceived sweet taste [3, 9]: ++

Source: patent US8846125B2, “Enaminocarbonyl compounds and their use” (Instytut Chemii Organicznej, Polska Akademia Nauk, priority 2009, dated 2014)
